Entries after “also recorded” stand apart in the source; their conditions may differ.
Assays:
[1] = system: Normal Human Neo-Epidermal Keratinocyte cells (NHEK); assay: Growth of NHEK cells; assay type: cell-based; conditions: 10^-6 M OGF
Description: OGFr is required for OGF action on growth. Normal Human Neo-Epidermal Keratinocyte cells (NHEK) were transfected with OGFr siRNAs or control siRNAs for 72 h in the presence of 10^−6 M OGF, 10^−6 M NTX, or sterile water. Cells were harvested at 72 h and counted with a hemacytometer. Data represent means±SE for 2 independent experiments. Cell numbers differed from wt cells or cells transfected with the negative control siRNA and treated with sterile water at p<0.05 (*), p<0.01 (**), or […]. […] At 72 hr, OGF-treated cultures had 20% fewer cells and at 96 hr, OGF-treated cultures had 32% fewer cells than sterile-water treated control cultures.

SCC-4 cells = assay: Growth curves of SCC-4 cells transfected with p16 siRNA or negative control siRNA; assay type: cell-based, human
Description: (§1) The SCC-1 (UM-SCC-1) cell line was obtained from the University of Michigan Cancer Research Laboratory, and CAL-27 and SCC-4 cells were obtained from the American Type Culture Collection (Manassas, Va.). SCC-1 and CAL-27 cells were cultured in DMEM media, whereas SCC-4 cells were grown in 1:1 Hams F-12 DMEM media. All media was supplemented with 10% fetal bovine serum (HyClone, Logan, Utah), 1.2% sodium bicarbonate, and 5000 units/ml penicillin, 5 μg/ml streptomycin and 10 μg/ml neomycin. OGF was purchased from Sigma-Aldrich (St. Louis, Mo.), dissolved in sterile water, and used at a final concentration of 10^−6 M.
(§2) The p16-targeted siRNAs (antisense:5′ […]-3′; sense (SEQ ID NO:5): 5′ […]-3′(SEQ ID NO:6) were obtained as ready-annealed, purified duplex probes (Invitrogen, Carlsbad, Calif.). For transfection, 2×10^5 cells per well were seeded in 6-well plates containing 1 ml of serum-free media without antibiotics. In each well, 20 nM of p16-siRNA or control siRNA solutions in serum-free media were added. Cells were incubated for 4 h at 37° C. prior to the addition of OGF. Cultures were incubated for additional 20 h, and then 1 ml fresh complete media either lacking or containing OGF was added. At the indicated time points, cells were collected for growth curves or Western blotting. Three or more independent experiments were conducted. The control siRNAs were purchased from Ambion.

p16 = assay: Western blot of p16, other CKIs and Cdk4 in SCC-1 cells; assay type: cell-based, human
Description: Synchronized cells (˜2×10^6) from each treatment were solubilized in 200 μl RIPA buffer (1×PBS, 10 μM IGEPAL, 1 mg/ml SDS, 5 mg/ml deoxycholic acid), containing protease and phosphatase inhibitors (2 μg/ml aprotinin, 3 mg/ml phenylmethyl sulfonyl fluoride (PMSF), 1 mM sodium orthovanidate, 1 μM okadaic acid). Total protein concentrations were measured using the DC protein assay kit (Bio-Rad Laboratories, Hercules, Calif.). Equal amounts of protein (40 μg) were subjected to 10% SDS-PAGE followed by transfer of proteins onto polyvinylidene difluoride (Millipore, Billerica, Mass.) using standard protocols. The following antibodies were purchased from commercial sources: phospho-Rb (Ser795), phospho-Rb (Ser807/811) (Cell Signaling Technology, Beverly, Mass.); phospho-Rb (Thr821) (Biosource, Camarillo, Calif.); Cdk4, cyclin D1, p15, p16, p18, p19 (Santa Cruz Biotechnology, Santa Cruz, Calif.); total Rb, p21, p27 (BD PharMingen, San Diego, Calif.); β-actin (Clone AC-15, Sigma). The following dilutions of primary antibodies were used to detect respective proteins. 1:200 phospho-Rb (Ser795), 1:200 phospho-Rb (Ser807/811); 1:200 phospho-Rb (Thr821); 1:200 Cdk4, 1:200 cyclin D1, 1:100 p16; 1:200 total Rb, 1:200 p21, 1:100 p27. Membranes were probed with secondary anti-rabbit or anti-mouse horseradish peroxidase-conjugated antibodies (GE Healthcare-Amersham Biosciences, Piscataway, N.J.); blots were developed using a chemiluminescence Western blotting detection system (GE Healthcare-Amersham Biosciences).
To determine equal loading of total protein samples, blots were reprobed with monoclonal antibody against β-actin at a dilution of 1:2000. If necessary, membranes were stripped in stripping buffer (62.5 mM Tris-HCl and 100 mM β-mercaptoethanol/2% SDS, pH 6.7) at 50° C. before being re-probed. Means and SE were determined from 3 or more independent experiments.
To quantify expression levels or kinase activity, the optical density of each band was determined by densitometry and analyzed by QuickOne (Bio-Rad Laboratories). Each value was normalized to β-actin from the same blot. To report the changes due to OGF treatment, the fold increase was calculated by dividing the normalized value from the OGF treated samples by the normalized value of control samples at each time point; thus, increases due to OGF have values greater than one, and decreases due to OGF have values less than one.
as §2

CAL-27 cells = assay: Growth curves of CAL-27 cells transfected with p16 siRNA; assay type: cell-based, human
Description: as §1, §2

[Met^5]-enkephalin [OGF]
fewer cells than control cultures ([1]; 72 hr): 20% | fewer cells than control cultures ([1]; 96 hr): 32% | doubling time ([1]; growth curve data): 57.1 h | decrease of growth (SCC-4 cells; SCC-4 cells transfected with negative control siRNAs, 96 h): 43% | effect on growth of cells lacking p16 expression (SCC-4 cells; SCC-4 cells transfected with p16 siRNAs): no effect | expression of cell cycle inhibitors p15, p18, p19, p21 and p27 (p16; OGF treatment of SCCHN): no significant effect | expression of Cdk4 protein (p16; following OGF exposure): did not change | p16 expression (p16; synchronized SCC-1 cells, 3 h, 10^-6 M OGF, 10^-5 M naloxone): significantly upregulated; also recorded: significantly elevated | effect on growth of cells lacking p16 (CAL-27 cells): no inhibitory effects
